Reference: the NIST ThermoML archive (doi:10.1021/je2000606)

Columns and labels:
[1] = refractive index (Na D-line) (dimensionless); xn = mol fraction of the nth substance listed; details: 101 kPa, Liquid
[2] = xn = mol fraction of the nth substance listed; details: 101 kPa, Liquid

CCCCn1cc[n+](C)c1.C[C@H](N)C(=O)[O-] [3-butyl-1-methyl-1H-imidazolium L-alaninate] + OCc1ccccc1
Details | mass density, [2] [kg/m3] | refractive index, [1] | viscosity, [2] [mPa·s]
298.15 K, x1 = 0.1012 | 1052.86 | 1.5355 | 6.989
298.15 K, x1 = 0.1939 | 1059.8 | 1.534 | 8.647
298.15 K, x1 = 0.3103 | 1066.02 | 1.532 | 11.9
298.15 K, x1 = 0.3971 | 1069.57 | 1.5304 | 14.7
298.15 K, x1 = 0.4864 | 1072.4 | 1.5287 | 18.75
298.15 K, x1 = 0.6015 | 1075.14 | 1.5264 | 26.24
298.15 K, x1 = 0.6945 | 1076.58 | 1.5245 | 34.42
298.15 K, x1 = 0.8015 | 1077.73 | 1.5223 | 46.72
298.15 K, x1 = 0.9026 | 1078.72 | 1.5203 | 61.33
303.15 K, x1 = 0.1012 | 1048.56 | 1.5333 | 5.691
303.15 K, x1 = 0.1939 | 1055.61 | 1.5319 | 6.738
303.15 K, x1 = 0.3103 | 1061.88 | 1.53 | 9.274
303.15 K, x1 = 0.3971 | 1065.49 | 1.5285 | 11.46
303.15 K, x1 = 0.4864 | 1068.42 | 1.5268 | 14.62
303.15 K, x1 = 0.6015 | 1071.16 | 1.5246 | 20.5
303.15 K, x1 = 0.6945 | 1072.71 | 1.5227 | 26.62
303.15 K, x1 = 0.8015 | 1073.95 | 1.5206 | 35.94
303.15 K, x1 = 0.9026 | 1074.98 | 1.5186 | 46.96
308.15 K, x1 = 0.1012 | 1045.09 | 1.5308 | 4.951
308.15 K, x1 = 0.1939 | 1052.25 | 1.5295 | 5.953
308.15 K, x1 = 0.3103 | 1058.75 | 1.5277 | 7.695
308.15 K, x1 = 0.3971 | 1062.51 | 1.5263 | 9.977
308.15 K, x1 = 0.4864 | 1065.53 | 1.5247 | 12.61
308.15 K, x1 = 0.6015 | 1068.43 | 1.5226 | 17.36
308.15 K, x1 = 0.6945 | 1070.11 | 1.5209 | 22.13
308.15 K, x1 = 0.8015 | 1071.46 | 1.5189 | 29.01
308.15 K, x1 = 0.9026 | 1072.58 | 1.517 | 36.89
313.15 K, x1 = 0.1012 | 1041.62 | 1.5286 | 4.28
313.15 K, x1 = 0.1939 | 1048.77 | 1.5273 | 5.515
313.15 K, x1 = 0.3103 | 1055.35 | 1.5256 | 7.175
313.15 K, x1 = 0.3971 | 1059.07 | 1.5242 | 8.904
313.15 K, x1 = 0.4864 | 1062.18 | 1.5227 | 11.02
313.15 K, x1 = 0.6015 | 1065.2 | 1.5206 | 15.01
313.15 K, x1 = 0.6945 | 1066.87 | 1.5189 | 18.65
313.15 K, x1 = 0.8015 | 1068.31 | 1.517 | 24.47
313.15 K, x1 = 0.9026 | 1069.52 | 1.5152 | 30.69
